Paper PMC10135756 (2023)
Blank lines part the entries; values can stand above or below the molecule they belong to.

Columns and labels:
[1] = test system: CSS.1-42 (DNA, aptamer) GACGACGCCCGCATGTTCCATGGATAGTCTTGACTAGTCGTC; experiment: SGI fluorescence; details: 100 mM NaCl, 10 mM MgCl2; 20 mM HEPES pH 7.5; 0.1× SGI, 1 μM aptamer
[2] = test system: DNA1 (DNA, other) ACGACACGGAGGCTTAGTTTGCTAAATGGTCATGTCGT; experiment: SGI fluorescence; details: 500 mM NaCl, 20 mM MgCl2; 50 mM Tris pH 7.6; 0.02× SGI, 200 nM DNA1
[3] = test system: CSS.1-42 (DNA, aptamer) GACGACGCCCGCATGTTCCATGGATAGTCTTGACTAGTCGTC; experiment: SGI fluorescence increase, microplate; details: 100 mM NaCl, 10 mM MgCl2; 20 mM HEPES pH 7.5; 0.1× SGI, 1 μM aptamer; with and without 0.01% Triton X-100; up to 6 μM
[4] = test system: Ade Apt (adenosine aptamer, WT) (DNA, aptamer) ACCTGGGGGAGTATTGCGGAGGAAGGT; experiment: ThT fluorescence; details: 50 mM NaCl, 4 mM MgCl2; 10 mM HEPES pH 7.6; 2 μM ThT, 100 nM aptamer
[5] = test system: Ade Apt (adenosine aptamer, WT) (DNA, aptamer) ACCTGGGGGAGTATTGCGGAGGAAGGT; experiment: ThT displacement fluorescence, quartz cuvette; details: 50 mM NaCl, 4 mM MgCl2, 10 mM HEPES pH 7.6, 20 °C
[6] = test system: Ade Apt M2 (DNA, aptamer) ACCTGGGGTAGTATTGCGGAGTAAGGT; experiment: ThT displacement fluorescence, quartz cuvette; details: 50 mM NaCl, 4 mM MgCl2; 10 mM HEPES pH 7.6, 20 °C; 2 μM ThT; up to 500 μM

binding ([5]; 2 μM ThT, up to 500 μM): no
SMILES: Nc1nc2c(ncn2[C@@H]2O[C@H](CO)[C@@H](O)[C@H]2O)c(=O)[nH]1

binding [6]: no
Kd ([5]; 2 μM ThT displaced, 100 nM aptamer, 10 min equilibration, apparent): 16.6 ± 8.4 µM
SMILES: Nc1ncnc2c1ncn2[C@@H]1O[C@H](CO)[C@@H](O)[C@H]1O

Further lines, the molecule ahead of its results:

SMILES: CCCN(CCCN(C)C)c1cc(C=C2Sc3ccccc3N2C)c2ccccc2[n+]1-c1ccccc1
binding [1]: weak
binding [2]: yes

SMILES: C[C@]12CCC(=O)C=C1CC[C@@H]1[C@@H]2[C@@H](O)C[C@@]2(C)[C@H]1CC[C@]2(O)C(=O)CO
binding [3]: yes

SMILES: Cc1ccc2c(c1)sc(-c1ccc(N(C)C)cc1)[n+]2C
binding [4]: yes
